According to article PMC5951806, “Rapid labelling and covalent inhibition of intracellular native proteins using ligand-directed N-acyl-N-alkyl sulfonamide” (Nature Communications, 2018):

How the values were obtained:
Assay in all cases: TMT LC-MSMS of 11-labelled proteins
Assay type in all cases: cell-based
[1] = target: 2,4-dienoyl-CoA reductase, mitochondrial (DECR1) (Homo sapiens, UniProt Q16698)
[2] = target: T1, Elongation factor 1-alpha 1 (EEF1A1) (Homo sapiens, UniProt P68104)
T1 sequence (P68104 1-462): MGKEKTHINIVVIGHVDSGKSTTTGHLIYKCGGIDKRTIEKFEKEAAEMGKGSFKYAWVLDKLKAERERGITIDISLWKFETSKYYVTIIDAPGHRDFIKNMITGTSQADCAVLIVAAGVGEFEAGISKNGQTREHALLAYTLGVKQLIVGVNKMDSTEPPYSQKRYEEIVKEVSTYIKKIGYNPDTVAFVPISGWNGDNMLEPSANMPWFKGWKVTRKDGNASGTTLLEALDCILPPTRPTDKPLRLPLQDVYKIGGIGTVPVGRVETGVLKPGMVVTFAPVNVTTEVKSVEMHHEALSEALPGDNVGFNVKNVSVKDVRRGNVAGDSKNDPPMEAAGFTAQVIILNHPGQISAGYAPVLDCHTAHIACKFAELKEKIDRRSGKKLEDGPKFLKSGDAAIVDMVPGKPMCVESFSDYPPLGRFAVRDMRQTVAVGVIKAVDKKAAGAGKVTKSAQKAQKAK

[3] = target: GTP-binding nuclear protein RAN (RAN) (Homo sapiens, UniProt P62826)
[4] = target: Argininosuccinate synthase (ASS1) (Homo sapiens, UniProt P00966); conditions: sheet Merged, SKBR3 cells
Sequence of Argininosuccinate synthase (ASS1) (P00966 whole entry): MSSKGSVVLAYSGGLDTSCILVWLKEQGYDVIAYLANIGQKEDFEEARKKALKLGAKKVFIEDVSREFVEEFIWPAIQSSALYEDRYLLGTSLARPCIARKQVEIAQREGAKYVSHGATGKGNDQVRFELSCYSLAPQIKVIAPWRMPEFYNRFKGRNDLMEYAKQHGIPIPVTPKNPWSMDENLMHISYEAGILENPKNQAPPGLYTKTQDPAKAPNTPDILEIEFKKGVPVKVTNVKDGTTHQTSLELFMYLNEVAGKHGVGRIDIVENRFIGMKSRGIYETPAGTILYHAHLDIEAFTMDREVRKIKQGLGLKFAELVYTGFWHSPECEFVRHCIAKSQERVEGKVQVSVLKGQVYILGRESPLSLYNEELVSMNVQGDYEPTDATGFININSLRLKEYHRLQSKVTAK

[5] = target: T-complex protein 1 subunit theta (CCT8) (Homo sapiens, UniProt P50990); conditions: sheet Exp1, SKBR3 cells
[6] = sheet Exp1, SKBR3 cells, 11 0.5 µM 3 h vs DMSO
[7] = sheet Exp1, SKBR3 cells, 11 0.5 µM 3 h vs with PU-H71 10 µM
[8] = sheet Merged, SKBR3 cells, 11 0.5 µM 3 h vs DMSO
[9] = sheet Merged, SKBR3 cells, 11 0.5 µM 3 h vs with PU-H71 10 µM
[10] = 11 0.5 µM 3 h vs with PU-H71 10 µM

Sequence of 2,4-dienoyl-CoA reductase, mitochondrial (DECR1) (Q16698 35-335): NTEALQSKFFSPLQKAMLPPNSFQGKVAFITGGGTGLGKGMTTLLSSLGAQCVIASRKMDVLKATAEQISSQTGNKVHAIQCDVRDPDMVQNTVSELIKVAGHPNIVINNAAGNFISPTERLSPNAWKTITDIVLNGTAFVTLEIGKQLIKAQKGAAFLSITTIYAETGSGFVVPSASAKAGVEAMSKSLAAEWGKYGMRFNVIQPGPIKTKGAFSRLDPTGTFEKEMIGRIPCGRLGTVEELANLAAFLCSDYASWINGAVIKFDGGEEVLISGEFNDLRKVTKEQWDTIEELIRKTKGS

CC(=O)Oc1ccc2c(c1)Oc1cc(OC(C)=O)ccc1C21OC(=O)c2cc(C(=O)NCCOCCOCCNC(=O)CCCC(=O)N(CC#N)S(=O)(=O)c3ccc(C(=O)NCCCn4c(Sc5cc6c(cc5I)OCO6)nc5c(N)ncnc54)cc3)ccc21 [compound 11]
Abundance Ratio: (11) / (DMSO) [1, 6]: 2.538 | Abundance Ratio: (11) / (11 with PU-H71) [1, 7]: 0.793 | Abundance Ratio: (11) / (11 with PU-H71) ([1]; sheet Exp2, DECR1): 0.758 | Abundance Ratio: (11) / (DMSO) ([1]; sheet Exp2, DECR1): 1.823 | Abundances (Grouped): 11 ([1]; sheet Exp2, DECR1): 59.8 | Abundances (Grouped): 11 with PU-H71 ([1]; sheet Exp2, DECR1, with PU-H71): 78.9 | Abundance Ratio: (11) / (DMSO) [1, 8]: 2.151 | Abundance Ratio: (11) / (11 with PU-H71) [1, 9]: 0.775 | Abundance Ratio: (11) / (11 with PU-H71) ([2]; Exp3, EEF1A1): 0.806 | Abundance Ratio: (11) / (DMSO) ([2]; Exp3, EEF1A1): 4.916 | Abundances (Grouped): 11 ([2]; Exp3, EEF1A1): 720.2 | Abundances (Grouped): 11 with PU-H71 ([2]; Exp3, EEF1A1): 894 | Abundance Ratio: (11) / (DMSO) [2, 6]: 4.039 | Abundance Ratio: (11) / (11 with PU-H71) [2, 7]: 0.803 | Abundance Ratio: (11) / (11 with PU-H71) ([2]; sheet Exp2, EEF1A1): 0.83 | Abundance Ratio: (11) / (DMSO) ([2]; sheet Exp2, EEF1A1): 3.879 | Abundances (Grouped): 11 ([2]; sheet Exp2, EEF1A1): 725.4 | Abundances (Grouped): 11 with PU-H71 ([2]; sheet Exp2, EEF1A1): 874.4 | Abundance Ratio: (11) / (DMSO) [2, 8]: 3.879 | Abundance Ratio: (11) / (11 with PU-H71) [2, 9]: 0.811 | Abundance Ratio: (11) / (11 with PU-H71) ([3]; Exp3, RAN): 0.98 | Abundance Ratio: (11) / (DMSO) ([3]; Exp3, RAN): 2.764 | Abundances (Grouped): 11 ([3]; Exp3, RAN): 43.4 | Abundances (Grouped): 11 with PU-H71 ([3]; Exp3, RAN): 44.3 | Abundance Ratio: (11) / (DMSO) [3, 6]: 2.108 | Abundance Ratio: (11) / (11 with PU-H71) [3, 7]: 0.767 | Abundance Ratio: (11) / (11 with PU-H71) ([3]; sheet Exp2, RAN): 0.778 | Abundance Ratio: (11) / (DMSO) ([3]; sheet Exp2, RAN): 2.161 | Abundances (Grouped): 11 ([3]; sheet Exp2, RAN): 78 | Abundances (Grouped): 11 with PU-H71 ([3]; sheet Exp2, RAN): 100.3 | Abundance Ratio: (11) / (DMSO) [3, 8]: 2.599 | Abundance Ratio: (11) / (11 with PU-H71) [3, 9]: 0.946 | Abundance Ratio: (11) / (DMSO) ([4]; 11 0.5 µM 3 h vs DMSO): 2.736 | Abundance Ratio: (11) / (11 with PU-H71) [4, 10]: 0.837 | Abundance Ratio: (11) / (DMSO) ([5]; 11 0.5 µM 3 h vs DMSO): 2.74 | Abundance Ratio: (11) / (11 with PU-H71) [5, 10]: 0.821
